Results as given in patent US8956999B2, “Herbicides” (Syngenta Limited, priority 2007, dated 2015).

How the values were obtained:
Format in all cases: in vivo
[1] = system: Alopecurus myosuroides (ALOMY); assay: Example B pre-emergence herbicidal test, glasshouse; details: 312 h, rate 250 g/ha, evaluated after 13 days, 100=total damage to plant, 0=no damage to plant
Description: (§1) Seeds of a variety of test species were sown in standard soil in pots. After cultivation for one day (pre-emergence) or after 8 days cultivation (post-emergence) under controlled conditions in a glasshouse (at 24/16° C., day/night; 14 hours light; 65% humidity), the plants were sprayed with an aqueous spray solution derived from the formulation of the technical active ingredient in acetone/water (50:50) solution containing 0.5% Tween 20 (polyoxyethelyene sorbitan monolaurate, CAS RN 9005-64-5). The test plants were then grown in a glasshouse under controlled conditions in a glasshouse (at 24/16° C., day/night; 14 hours light; 65% humidity) and watered twice daily. After 13 days for pre and post-emergence, the test was evaluated (100=total damage to plant; 0=no damage to plant). Test Plants: Alopecurus myosuroides (ALOMY), Avena fatua (AVEFA), Setaria faberi (SETFA), Echinochloa crus-galli (ECHCG), Solanum nigrum (SOLNI) and Amaranthus retoflexus (AMARE)

[2] = system: Amaranthus retoflexus (AMARE); assay: as above; details: Amaranthus retroflexus, 312 h, rate 250 g/ha, evaluated after 13 days, 100=total damage to plant, 0=no damage to plant
Description: as §1

Avena fatua (AVEFA) [3] = assay: as above; details: 312 h, rate 250 g/ha, evaluated after 13 days, 100=total damage to plant, 0=no damage to plant
Description: as §1

[4] = system: Echinochloa crus-galli (ECHCG); assay: as above; details: Echinochloa crus-galli, 312 h, rate 250 g/ha, evaluated after 13 days, 100=total damage to plant, 0=no damage to plant, read-out: Pre-Emergence Activity ECHGG
Description: as §1

Setaria faberi (SETFA) [5] = assay: as above; details: Setaria faberi, 312 h, rate 250 g/ha, evaluated after 13 days, 100=total damage to plant, 0=no damage to plant, read-out: Pre-Emergence Activity SEFTA
Description: as §1

[6] = system: Alopecurus myosuroides (ALOMY); assay: Example B post-emergence herbicidal test, glasshouse; details: 312 h, rate 250 g/ha, evaluated after 13 days, read-out: Post-Emergence Activity ALOMY (100=total damage to plant; 0=no damage to plant)
Description: as §1

[7] = system: Amaranthus retoflexus (AMARE); assay: as above; details: Amaranthus retroflexus, 312 h, rate 250 g/ha, evaluated after 13 days, read-out: Post-Emergence Activity AMARE (100=total damage to plant; 0=no damage to plant)
Description: as §1

Avena fatua (AVEFA) [8] = assay: as above; details: 312 h, rate 250 g/ha, evaluated after 13 days, read-out: Post-Emergence Activity AVEFA (100=total damage to plant; 0=no damage to plant)
Description: as §1

[9] = system: Echinochloa crus-galli (ECHCG); assay: as above; details: 312 h, rate 250 g/ha, evaluated after 13 days, read-out: Post-Emergence Activity ECHGG (100=total damage to plant; 0=no damage to plant)
Description: as §1

Setaria faberi (SETFA) [10] = assay: as above; details: 312 h, rate 250 g/ha, evaluated after 13 days, read-out: Post-Emergence Activity SEFTA (100=total damage to plant; 0=no damage to plant)
Description: as §1

Row | SMILES | pest or weed control at 250 g/ha [1] [%] | pest or weed control at 250 g/ha [2] [%] | pest or weed control at 250 g/ha (Avena fatua (AVEFA) [3]) [%] | pest or weed control at 250 g/ha [4] [%] | pest or weed control at 250 g/ha (Setaria faberi (SETFA) [5]) [%] | pest or weed control at 250 g/ha [6] [%] | pest or weed control at 250 g/ha [7] [%] | pest or weed control at 250 g/ha (Avena fatua (AVEFA) [8]) [%] | pest or weed control at 250 g/ha [9] [%] | pest or weed control at 250 g/ha (Setaria faberi (SETFA) [10]) [%]
1 | CCc1sc(-c2ccc(Cl)c(F)c2)nc1C1C(=O)C(C)(C)OC(C)(C)C1=O [Compound T48] | 30 | 0 | 60 | 50 | 70 | 100 | 0 | 100 | 100 | 100
2 | CCc1sc(-c2ccc(Br)cc2)nc1C1C(=O)C(C)(C)OC(C)(C)C1=O [Compound T49] | 60 | 0 | 20 | 60 | 80 | 100 | 20 | 100 | 100 | 100
3 | CCc1sc(-c2ccc(Cl)cc2)nc1C1C(=O)C2CCC(C)(O2)C1=O (centres unmarked) [Compound T50, 3-[2-(4-chloro-phenyl)-5-ethyl-thiazol-4-yl]-1-methyl-8-oxa-bicyclo[3.2.1]-octane-2,4-dione] | 90 | 0 | 90 | 100 | 100 | 100 | 0 | 100 | 100 | 100
4 | Cc1sc(-c2ccc(I)cc2)nc1C1C(=O)C(C)(C)OC(C)(C)C1=O [Compound T51] | 40 | 0 | 80 | 60 | 100 | 100 | 0 | 90 | 90 | 100
5 | Cc1sc(-c2ccc(Br)cc2F)nc1C1C(=O)C(C)(C)OC(C)(C)C1=O [Compound T52] | 60 | 0 | 0 | 80 | 100 | 100 | 0 | 100 | 100 | 100
6 | CCc1sc(-c2ccc(Cl)cc2Cl)nc1C1C(=O)C(C)(C)OC(C)(C)C1=O [Compound T53] | 30 | 0 | 0 | 60 | 90 | 90 | 0 | 90 | 100 | 100
7 | CCc1sc(-c2ccc(Br)cc2F)nc1C1C(=O)C(C)(C)OC(C)(C)C1=O [Compound T54] | 100 | 20 | 90 | 100 | 100 | 100 | 0 | 100 | 100 | 100
8 | Cc1sc(-c2ccc(Cl)s2)nc1C1C(=O)C(C)(C)OC(C)(C)C1=O [Compound T55] | 0 | 0 | 0 | 20 | 50 | 40 | 0 | 0 | 70 | 60
9 | Cc1sc(-c2ccc(Br)cn2)nc1C1C(=O)C(C)(C)OC(C)(C)C1=O [Compound T56] | 0 | 0 | 0 | 10 | 20 | 30 | 0 | 20 | 80 | 90
10 | CCc1sc(-c2ccc(Br)cc2C)nc1C1C(=O)C(C)(C)OC(C)(C)C1=O [Compound T57] | 20 | 0 | 30 | 50 | 90 | 100 | 0 | 90 | 100 | 100
11 | Cc1cc(Br)ccc1-c1nc(C2C(=O)C(C)(C)OC(C)(C)C2=O)c(C)s1 [Compound T58] | 0 | 20 | 0 | 50 | 100 | 90 | 0 | 80 | 100 | 100
12 | Cc1sc(COc2ccc(Cl)cc2)nc1C1C(=O)C(C)(C)OC(C)(C)C1=O [Compound T59] | 0 | 0 | 0 | 0 | 0 | 30 | 0 | 0 | 70 | 30
13 | Cc1sc(-c2ccc(OC(F)F)cc2)nc1C1C(=O)C(C)(C)OC(C)(C)C1=O [Compound T60] | 40 | 0 | 0 | 20 | 70 | 50 | 0 | 40 | 90 | 90
14 | CCc1sc(-c2ccc(Cl)cc2C)nc1C1C(=O)C(C)(C)OC(C)(C)C1=O [Compound T61] | 80 | 0 | 0 | 100 | 100 | 90 | 0 | 70 | 100 | 90
15 | CCc1sc(-c2ccc(OC(F)F)cc2)nc1C1C(=O)C(C)(C)OC(C)(C)C1=O [Compound T62] | 90 | 0 | 0 | 60 | 100 | 100 | 0 | 100 | 100 | 100
16 | CCc1sc(-c2ccc(Br)cn2)nc1C1C(=O)C(C)(C)OC(C)(C)C1=O [Compound T63] | 20 | 0 | 20 | 30 | 20 | 80 | 0 | 90 | 100 | 100
17 | CCc1sc(-c2c(C)cc(Cl)cc2F)nc1C1C(=O)C(C)(C)OC(C)(C)C1=O [Compound T64] | 0 | 0 | 0 | 70 | 100 | 20 | 0 | 60 | 100 | 100
